Calls of active or inactive are those of the source.
Legend:
[1] = test system: HeLa; assay: cells; conditions: Homo sapiens, 48 h
Description: Cytotoxicity against human HeLa cells assessed as inhibition of cell growth incubated for 48 hrs by CCK8 assay

[2] = Cytotoxicity against HEK293T cells assessed as cell viability at 20 uM incubated for 48 hrs by CCK8 assay relative to control; format: cell-based, HEK-293T; conditions: human, read-out: Activity
[3] = test system: RS4-11; assay: cells; conditions: Homo sapiens, RS4-11, 48 h
Description: Cytotoxicity against human RS4-11 cells assessed as inhibition of cell growth incubated for 48 hrs by CCK8 assay

[4] = test system: HL-60; assay: cells; conditions: Homo sapiens, HL-60, 48 h
Description: Cytotoxicity against human HL-60 cells assessed as inhibition of cell growth incubated for 48 hrs by CCK8 assay

[5] = biological target: T1, Apoptosis regulator Bcl-2 (Homo sapiens, UniProt P10415); assay: Binding affinity to full length human Bcl-2 expressed in Escherichia coli BL21 (DE3) at up to 100 uM preincubated for 30 mins followed by 5-FAM-QEDIIIINIARHLAQVGDSMD-RSIPPG tracer addition and measured after 20 mins by fluorescence polarization assay; conditions: dose microM <=100, time 50.0 min
[6] = biological target: T2, Induced myeloid leukemia cell differentiation protein Mcl-1 (Homo sapiens, UniProt Q07820); assay: Binding affinity to full length human MCL1 expressed in Escherichia coli BL21 (DE3) at up to 100 uM preincubated for 30 mins followed by 5-FAM-QEDIIIINIARHLAQVGDSMD-RSIPPG tracer addition and measured after 20 mins by fluorescence polarization assay; conditions: dose microM <=100, time 50.0 min
[7] = biological target: T3, Bcl-2-like protein 1 (Homo sapiens, UniProt Q07817); assay: Binding affinity to full length human Bcl-xl expressed in Escherichia coli BL21 (DE3) at up to 100 uM preincubated for 30 mins followed by 5-FAM-QEDIIIINIARHLAQVGDSMD-RSIPPG tracer addition and measured after 20 mins by fluorescence polarization assay; conditions: dose microM <=100, time 50.0 min
[8] = biological target: T1, Apoptosis regulator Bcl-2; assay: Binding affinity to full length human Bcl-2 expressed in Escherichia coli BL21 (DE3) assessed as inhibition constant preincubated for 30 mins followed by 5-FAM-QEDIIIINIARHLAQVGDSMD-RSIPPG tracer addition and measured after 20 mins by fluorescence polarization assay
[9] = biological target: T2, Induced myeloid leukemia cell differentiation protein Mcl-1; assay: Binding affinity to full length human MCL1 expressed in Escherichia coli BL21 (DE3) assessed as inhibition constant preincubated for 30 mins followed by 5-FAM-QEDIIIINIARHLAQVGDSMD-RSIPPG tracer addition and measured after 20 mins by fluorescence polarization assay
[10] = test system: HEK-293T; assay: Cytotoxicity against HEK293T cells assessed as reduction in cell viability incubated for 48 hrs by CCK8 assay; conditions: Homo sapiens
[11] = biological target: T3, Bcl-2-like protein 1; assay: Binding affinity to full length human Bcl-xl expressed in Escherichia coli BL21 (DE3) assessed as inhibition constant preincubated for 30 mins followed by 5-FAM-QEDIIIINIARHLAQVGDSMD-RSIPPG tracer addition and measured after 20 mins by fluorescence polarization assay
[12] = biological target: T2, Induced myeloid leukemia cell differentiation protein Mcl-1; assay: Binding affinity to 15N-labeled human MCL1 (172 to 327 residues) expressed in Escherichia coli BL21 (DE3) assessed as chemical shift at M250 residue at 0.3 mM incubated for 1 hr by 15N HSQC NMR spectroscopy analysis
[13] = biological target: T2, Induced myeloid leukemia cell differentiation protein Mcl-1; assay: Binding affinity to 15N-labeled human MCL1 (172 to 327 residues) expressed in Escherichia coli BL21 (DE3) assessed as chemical shift at H224 residue at 0.3 mM incubated for 1 hr by 15N HSQC NMR spectroscopy analysis
[14] = biological target: T2, Induced myeloid leukemia cell differentiation protein Mcl-1; assay: Binding affinity to 15N-labeled human MCL1 (172 to 327 residues) expressed in Escherichia coli BL21 (DE3) assessed as chemical shift at L235 residue at 0.3 mM incubated for 1 hr by 15N HSQC NMR spectroscopy analysis
[15] = biological target: T2, Induced myeloid leukemia cell differentiation protein Mcl-1; assay: Binding affinity to 15N-labeled human MCL1 (172 to 327 residues) expressed in Escherichia coli BL21 (DE3) assessed as chemical shift at M231 residue at 0.3 mM incubated for 1 hr by 15N HSQC NMR spectroscopy analysis
[16] = biological target: T2, Induced myeloid leukemia cell differentiation protein Mcl-1; assay: Binding affinity to 15N-labeled human MCL1 (172 to 327 residues) expressed in Escherichia coli BL21 (DE3) assessed as chemical shift at R263 residue at 0.3 mM incubated for 1 hr by 15N HSQC NMR spectroscopy analysis
[17] = biological target: T2, Induced myeloid leukemia cell differentiation protein Mcl-1; assay: Binding affinity to 15N-labeled human MCL1 (172 to 327 residues) expressed in Escherichia coli BL21 (DE3) assessed as chemical shift at F228 residue at 0.3 mM incubated for 1 hr by 15N HSQC NMR spectroscopy analysis
[18] = biological target: T2, Induced myeloid leukemia cell differentiation protein Mcl-1; assay: Binding affinity to full length human MCL1 expressed in Escherichia coli BL21 (DE3) at 100 uM preincubated for 30 mins followed by 5-FAM-QEDIIIINIARHLAQVGDSMD-RSIPPG tracer addition and measured after 20 mins by fluorescence polarization assay relative to control; conditions: time 50.0 min
[19] = biological target: T1, Apoptosis regulator Bcl-2; assay: Binding affinity to full length human Bcl-2 expressed in Escherichia coli BL21 (DE3) at 100 uM preincubated for 30 mins followed by 5-FAM-QEDIIIINIARHLAQVGDSMD-RSIPPG tracer addition and measured after 20 mins by fluorescence polarization assay relative to control; conditions: time 50.0 min
[20] = biological target: T3, Bcl-2-like protein 1; assay: Binding affinity to full length human Bcl-xl expressed in Escherichia coli BL21 (DE3) at 100 uM preincubated for 30 mins followed by 5-FAM-QEDIIIINIARHLAQVGDSMD-RSIPPG tracer addition and measured after 20 mins by fluorescence polarization assay relative to control; conditions: time 50.0 min

T2 sequence (Q07820 whole entry): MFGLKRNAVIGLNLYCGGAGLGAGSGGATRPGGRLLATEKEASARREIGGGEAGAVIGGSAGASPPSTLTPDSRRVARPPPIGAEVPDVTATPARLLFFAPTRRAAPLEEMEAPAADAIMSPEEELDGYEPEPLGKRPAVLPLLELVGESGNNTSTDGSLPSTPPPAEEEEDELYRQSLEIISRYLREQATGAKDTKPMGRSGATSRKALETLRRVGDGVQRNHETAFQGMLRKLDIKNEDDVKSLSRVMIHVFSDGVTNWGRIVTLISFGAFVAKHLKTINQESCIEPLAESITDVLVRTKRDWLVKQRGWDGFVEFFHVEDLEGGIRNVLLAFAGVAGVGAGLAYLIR
T1 sequence (P10415 whole entry): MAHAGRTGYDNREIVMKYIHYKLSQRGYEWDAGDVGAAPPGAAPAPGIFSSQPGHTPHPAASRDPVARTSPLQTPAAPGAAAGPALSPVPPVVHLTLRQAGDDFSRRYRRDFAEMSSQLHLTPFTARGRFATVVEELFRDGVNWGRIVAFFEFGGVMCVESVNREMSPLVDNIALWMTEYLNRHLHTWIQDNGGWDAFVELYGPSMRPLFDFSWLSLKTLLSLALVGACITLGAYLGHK
T3 sequence (Q07817 whole entry): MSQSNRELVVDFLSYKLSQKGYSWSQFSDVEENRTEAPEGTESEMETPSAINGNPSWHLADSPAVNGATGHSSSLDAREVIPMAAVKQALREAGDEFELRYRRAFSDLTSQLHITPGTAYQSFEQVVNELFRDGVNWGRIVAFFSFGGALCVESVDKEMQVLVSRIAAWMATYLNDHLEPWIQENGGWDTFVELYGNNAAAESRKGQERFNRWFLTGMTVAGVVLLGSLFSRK

SMILES	IC50 [1] [µM]	viability at 48 h, 20 µM [2] [%]	IC50 [3] [µM]	IC50 [4] [µM]	Activity [5]	Activity [6]	Activity [7]	Ki [8] [µM]	Ki [9] [nM]	IC50 [10] [µM]	Ki [11] [nM]	Activity [12]	Activity [13]	Activity [14]	Activity [15]	Activity [16]	Activity [17]	inhibition [18] [%]	inhibition [19] [%]	inhibition [20] [%]
O=C(NCCNS(=O)(=O)c1ccc(-c2ccccc2O[C@H]2CC[C@H](O)CC2)s1)Nc1cc(C(F)(F)F)cc(C(F)(F)F)c1	> 20	50	10.1	7.1	inactive	inactive	inactive	–	–	–	–	–	–	–	–	–	–	–	–	–
O=C(NCCNS(=O)(=O)c1sccc1-c1ccccc1Oc1ccc(O)c(O)c1)Nc1cc(C(F)(F)F)cc(C(F)(F)F)c1	> 50	–	4.9	5.7	–	–	inactive	17	2100	8.9	–	–	–	–	–	–	–	–	–	–
O=C(NCCNS(=O)(=O)c1ccc(-c2ccccc2OCc2ccccc2)s1)Nc1cc(Cl)cc(Cl)c1	> 20	41	> 20	11.7	inactive	inactive	inactive	–	–	–	–	–	–	–	–	–	–	–	–	–
Cc1ccc(-c2ccsc2S(=O)(=O)NCCNC(=O)Nc2ccc([N+](=O)[O-])cc2)c(Oc2ccc(O)c(O)c2)c1	> 20	48	7.7	3.9	–	–	inactive	13	7100	–	–	–	–	–	–	–	–	–	–	–
O=C(NCCNS(=O)(=O)c1ccc(-c2ccccc2Oc2ccc(O)c(O)c2)s1)Nc1cc(Cl)cc(Cl)c1	> 20	–	4.5	10.4	–	–	–	3.6	940	12.4	1700	–	–	–	–	–	–	–	–	–
O=S(=O)(NCCNC(=S)Nc1cc(C(F)(F)F)cc(C(F)(F)F)c1)c1ccc(-c2ccccc2Oc2ccc(O)c(O)c2)s1	> 20	–	10.3	18.3	–	–	–	2.6	370	12.3	930	–	–	–	–	–	–	–	–	–
Cc1ccc(-c2ccsc2S(=O)(=O)NCCNC(=O)Nc2cc(Cl)cc(Cl)c2)c(Oc2ccc(O)c(O)c2)c1	6.5	–	5.1	3.5	–	–	inactive	2.9	590	6.7	–	–	–	–	–	–	–	–	–	–
O=C(NCCNS(=O)(=O)c1cc(-c2ccccc2Oc2ccc(O)c(O)c2)cs1)Nc1cc(Cl)cc(Cl)c1	> 50	–	> 50	> 20	–	–	–	8.4	770	> 20	1700	–	–	–	–	–	–	–	–	–
Cc1nn(C)c(COc2ccc(N3CCN(S(=O)(=O)N(C)C)CC3)cc2)c1-c1cccc2c(CCCOc3cccc4ccccc34)c(C(=O)O)n(CCN3CCOCC3)c12	> 20	–	7.31	2.46	inactive	–	inactive	–	< 1	> 20	–	Active	Active	Active	Active	Active	Active	–	–	–
O=C(NCCNS(=O)(=O)c1sccc1-c1ccccc1Oc1ccc(O)c(O)c1)Nc1cc(Cl)cc(Cl)c1	> 50	–	6.2	6.9	–	–	inactive	4.6	1400	10.7	–	–	–	–	–	–	–	–	–	–
O=C(NCCNS(=O)(=O)c1cc(-c2ccccc2Oc2ccc(O)c(O)c2)cs1)Nc1cc(C(F)(F)F)cc(C(F)(F)F)c1	> 20	–	3.9	1.3	–	–	–	5.2	510	> 50	1700	–	–	–	–	–	–	–	–	–
O=C(NCCNS(=O)(=O)c1ccc(-c2ccccc2Oc2ccc(O)c(O)c2)s1)Nc1cc(C(F)(F)F)cc(C(F)(F)F)c1	> 20	–	4.9	10.5	–	–	–	3.9	420	17.1	1500	–	–	–	–	–	–	–	–	–
O=S(=O)(NCCNC(=S)Nc1cc(C(F)(F)F)cc(C(F)(F)F)c1)c1sccc1-c1ccccc1Oc1ccc(O)c(O)c1	> 50	–	4.8	4.3	–	–	inactive	5.6	840	7.5	–	–	–	–	–	–	–	–	–	–
O=S(=O)(NCCNC(=S)Nc1cc(C(F)(F)F)cc(C(F)(F)F)c1)c1cc(-c2ccccc2Oc2ccc(O)c(O)c2)cs1	> 20	–	4.5	0.6	–	–	–	4.6	320	> 20	1000	–	–	–	–	–	–	–	–	–
O=S(=O)(c1sccc1-c1ccccc1Oc1ccc(O)c(O)c1)N1CCN(C(=S)Nc2cc(C(F)(F)F)cc(C(F)(F)F)c2)CC1	> 20	–	7.3	2.2	–	–	–	–	–	> 20	–	–	–	–	–	–	–	72	20	12
COc1ccc(Oc2ccccc2-c2ccsc2S(=O)(=O)N2CCN(C(=O)Nc3ccc([N+](=O)[O-])cc3)CC2)cc1OC	> 50	–	> 50	> 50	–	–	–	–	–	> 20	–	–	–	–	–	–	–	22	17	20
COc1ccc(Oc2ccccc2-c2ccsc2S(=O)(=O)N2CCN(C(=S)Nc3ccc(Cl)cc3)CC2)cc1OC	> 50	–	> 50	> 50	–	–	–	–	–	> 20	–	–	–	–	–	–	–	43	18	33

Reference: ChEMBL document CHEMBL5034015, “Structure-Based Optimization of 3-Phenyl-N-(2-(3-phenylureido)ethyl)thiophene-2-sulfonamide Derivatives as Selective Mcl-1 Inhibitors” (J Med Chem, 2021)
